Assay results reported in US20230065416A1, “CLATHRIN-CHIMETIC ANTIBODY RECEPTOR CONSTRUCTS FOR IMMUNE CELL ACTIVATION THERAPY IN VIVO” (NANOTOMER, INC., priority 2020, published 2023).
Like-named read-outs stand apart in the source and are kept apart here.

Tests used:
[1] = Trafficking of Protin-102 in a B6 mouse, imaging 24 hours post-injection; type: in vivo
Experimental: The clathrin heavy chains were labeled with CF680 dye, a cyanine-based dye that reacts with alkyne and is commonly used for labeling antibodies. The clathrin heavy chains were then injected into a C57BL/6 (B6) mouse, and imaging was performed 24 hours post-injection.

[2] = tested on: 4T1 murine breast cancer; experiment: Therapeutic study in BALB/c mice bearing 4T1 tumors; type: in vivo, mouse
Experimental: (§1) When the tumor size reached approximately 100 mm3, mice were randomly divided into three groups (n=6). […] The injection schedule was twice a week for two weeks. The tumor size and body weight of the mice were monitored during the treatment course. The length (l) and width (w) of the tumor were measured by a digital vernier caliper, and tumor volume (V) was defined as: […]V=l×w2/2. The tumor growth inhibition (TGI) was estimated by a following equation: TGI (%)=(Vc−Vt)/(Vc−Vi)×100, where Vc is the volume of the control tumor at the end of the study, Vt is the volume of drug-treated tumor at the end of the study, and Vi is the volume of tumor at the initial treatment.
Before the diameter of tumor reached approximately 20 mm, the mice were euthanized, and lungs, livers, kidneys, hearts, pancreas, spleen, tumor, non-drain inguinal lymph nodes (far from tumor), and drain inguinal lymph nodes (located near tumor) were harvested and embedded in optimum cutting temperature (OCT) compound (TISSUE TEK™; SAKURA FINETEK™; Torrance, Calif.).
Representative photos for tumors from each group on day 27 post-implant are shown in top images of FIG. 14B. We evaluated the tumor growth inhibition (TGI) rate of each group (see the details in Method).

[3] = tested on: B16 melanoma; experiment: Therapeutic study in C57BL/6 mice bearing B16 tumors; type: in vivo, mouse
Excerpt: as §1, with “BALB/c (female; 7-8 weeks) were subcutaneously implanted by 4T1 (100,000 cells; ATCC® CRL-2539™) on left 4th mammary glands. C57BL/6 (female; 7-8 weeks) were subcutaneously inoculated by B16 melanoma cells (100,000 cells; ATCC® CRL-6322™) or Lewis lung carcinoma line 1 cells (LLC1) (100,000 cells; ATCC® CRL-1642™) on right rear flanks. When” for “When”
Encouraged by the therapeutic effects for 4T1 tumor model, these protein-drug conjugates were further investigated for cancer therapy in a B16 (melanoma) or LLC1 (lung cancer)-bearing C57BL/6 mice. Drugs were now injected into mice having a tumor volume of approximately 100 mm3 according to the injection schedule identical to the 4T1 study.

[4] = tested on: Lewis lung carcinoma line 1 (LLC1); experiment: Therapeutic study in C57BL/6 mice bearing LLC1 tumors; type: in vivo, mouse; conditions: LLC1-bearing C57BL/6 mice; total dose of TAXOL® 32 μg/kg; n=6
Experimental: as §1

[5] = tested on: ovarian carcinoma; conditions: cited from earlier work
[6] = tested on: breast cancer; conditions: cited from earlier work

Compound: Protin-102: clathrin heavy chain
- distribution among lymph nodes ([1]; compared with axillary and inguinal lymph nodes): concentration in the mesenteric lymph nodes
- organ with the highest level of signal ([1]; labeled with CF680): liver

Compound: CC(=O)O[C@H]1C(=O)[C@@]2(C)[C@H]([C@H](OC(=O)c3ccccc3)[C@]3(O)C[C@H](OC(=O)[C@H](O)[C@@H](NC(=O)c4ccccc4)c4ccccc4)C(C)=C1C3(C)C)[C@]1(OC(C)=O)CO[C@@H]1C[C@@H]2O [TAXOL®, 5beta, 20-epoxy-1,2alpha, 4,7beta, 10beta, 13alpha-hexahydroxytax-11-en-9-one 4,10-diacetate 2-benzoate 13-ester with (2R,3S)—N-benzoyl-3-phenylisoserine]
- final volume of the tumor ([2]; 4T1, day 27 post-implant, i.v. 2 times per week for 2 weeks, total dose of TAXOL® 32 μg/kg, n=6): 1.70±0.42 ×103 mm3
- tumor growth inhibition (TGI) rate ([2]; 4T1, end of study, identical dose of TAXOL® (8 μg/kg per injection), n=6): 26.2±1.2%
- nodules in the lung (metastasis of 4T1 tumor) ([2]; 4T1-bearing mice, day 27 post-implant): nodules were widely located in the lung
- TGI ([3]; B16): 47.3±1.2%
- tumor volume on the final day ([3]; B16-bearing C57BL/6 mice, total dose of TAXOL® 32 μg/kg, n=6): 1.29±0.50 ×103 mm3
- tumor volume on the final day [4]: 1.21±0.31 ×103 mm3
- Response rate ([5]; regimen 135/24): 13.2%
- Survival, median ([5]; regimen 135/24): 10.7 months
- Time to Progression, median ([5]; regimen 135/24): 2.8 months
- Response rate ([5]; regimen 155/3 as printed): 15.2%
- Time to Progression, median ([5]; regimen 155/3 as printed): 3.1 months
- Response rate ([5]; regimen 175/3 (mg/m2 / infusion h)): 14.6%
- Survival, median ([5]; regimen 175/3): 11.5 months
- Time to Progression, median ([5]; regimen 175/3): 4.4 months
- Response rate ([5]; regimen 175/4): 21.7%
- Survival, median ([5]; regimen 175/4): 11.8 months
- Time to Progression, median ([5]; regimen 175/4): 4.2 months
- Response rate ([6]; regimen 135/3): 22%
- Survival, median ([6]; regimen 135/3): 10.5 months
- Time to Progression, median ([6]; regimen 135/3): 3.0 months
- Response rate ([6]; regimen 175/3): 28%
- Survival, median ([6]; regimen 175/3): 11.7 months
- Time to Progression, median ([6]; regimen 175/3): 4.2 months
